Experimental data: patent publication EP4427807A1, “N-BRIDGED DIAZOCINE ANALOGUES OF CARBAMAZEPINE TO CONTROL NEURONAL ACTIVITY WITH LIGHT AND APPLICATIONS THEREOF” (Fundació Institut de Bioenginyeria de Catalunya (IBEC), priority 2023, dated 2024)
Entries after “also recorded” stand apart in the source; their conditions may differ. Like-named read-outs stand apart in the source and are kept apart here.

How the values were obtained:
[1] = Quantification of photostationary states (PSS) by HPLC at the isosbestic point; assay type: physicochemical; conditions: for ratio between the two isomers: cis (Z) / ratio between the two isomers: trans (E): HPLC
Procedure: High-performance Liquid Chromatography (HPLC) analysis were performed with a Waters Alliance e2695 Separation Module paired with a Waters 2998 UV/vis Photodiode Array Detector (Diode array 190-800 nm) and a Waters AQUITY QDa Mass Detector (positive ionization ESI+). Samples were injected on a XSelect CSH C18 […] 4.6x50 mm analytical column with the following mobile phases, respectively called line A and B: water with formic acid 0.1% (v/v) and acetonitrile with formic acid 0.1% (v/v). The injections were eluted with the following method: flow 1.6 mL/min, gradient 0.00-4.50 min, 5-100% B; 4.50-5.00 min, 100-5% B.
(§1) The photochromic response was characterized by the absorption spectra after irradiation with LEDs at λ = 365 nm, 380 nm, 420 nm, 460 nm, 500 nm. The maximal changes in the spectra were associated to the optimal λ to isomerize from Z to E and vice versa. Resistance to photofatigue was tested by cycles of illuminations between the optimal λ. The kinetics of the spontaneous relaxation in the dark (time course of absorption at a fixed λ) was measured to quantify the relaxation lifetime by fitting the plots to an exponential decay curve. The UV-vis absorption analysis for the photochromic characterization has been carried out at room temperature. Stock solutions were prepared in the concentration of 10 mM in DMSO. The solutions used for the measurements were obtained by diluting the stock solutions in PBS at the desired final concentration (in the range of 30 µM and 50 µM). Finally, the photostationary states (PSS) were quantified using HPLC at the λ corresponding to the isosbestic point.
The quantification of photostationary states (PSS) has been measured by HPLC analysis. The peaks at the Diode Array have been detected and integrated at the wavelength corresponding to the isosbestic point.

[2] = Photochemical characterization by UV-vis absorption (photoisomerization, thermal relaxation in the dark, photofatigue); assay type: physicochemical
Text: All reagents and solvents were purchased from Sigma-Aldrich and Cymit Quimica S.L. and were used without any further purification. Reactions were monitored by analytical thin layer chromatography (TLC) on commercial silica gel 60 F254 aluminum foils 20 x 20 cm (Merck). Spots were visualized under 254 or 365 nm UV lamp and/or with the use of an appropriate stain (ninidrine solution, Dragendorff reagent, alkaline potassium permanganate solution or phosphomolybdic acid solution 5% in ethanol). Compounds were purified by flash chromatography on PanReac Applichem silica gel 60 (40-63 µm) as stationary phase; the mobile phases are specified for each compound. All the UV/vis spectra and experiments were registered with Shimadzu UV-1800 UV-VIS spectrophotometer using quartz cuvettes (10 mm light path).
as §1, with “The” for “The photochromic response was characterized by the absorption spectra after irradiation with LEDs at λ = 365 nm, 380 nm, 420 nm, 460 nm, 500 nm. The”

[3] = tested on: primary hippocampal neurons; test: Current clamp recording of action potential firing in cultured primary hippocampal neurons; assay type: cell-based, Sprague-Dawley rat; conditions: Rattus norvegicus, Hippocampal neuron
Procedure: Procedures were performed in accordance with the European guidelines for animal care and use in research and were approved by the Animal Experimentation Ethics Committee at the University of Barcelona. Sprague-Dawley rat pups (P 1-5) were sacrificed by decapitation, hippocampi were isolated and treated with 0.1% trypsin in HBSS (10 min, 37°C). Neurons were plated on Poly-D-Lysine (PDL)-coated 16 mm coverslips (0.5-1 x 10^5 cells) and incubated at 37°C, 5% CO2 for 1,5 hours (to allow cells adhesion) in MEM supplemented with heat-inactivated FBS (5%), heat-inactivated HS (5%), penstrep (10 Ul/ml), L-glutamine (2mM) and glucose (20mM). Cells were cultured in Neurobasal A medium, supplemented with B-27 (5%), penstrep (5 Ul/ml), glutaMAX (0,5x) and glucose (15mM). On DIV 3 cultured cells were treated with 1 µM of Ara-C to prevent proliferation of non-neuronal cells. 50% of the maintenance medium was exchanged every 4 days.
Whole-cell recordings were performed at room temperature using an EPC-10 amplifier (HEKA Elektronik, Germany) and Patch Master software (HEKA). […] Firing of primary hippocampal neurons was recorded in current clamp configuration. […]
Data was analyzed using Igor Pro 6.05 (WaveMatrics, USA) and Origin 8.0 (OriginLab, USA) software. […] Statistical difference between groups was evaluated with Mann-Whitney test and was considered significant at the value of P below 0.05.

[4] = tested on: zebrafish (Danio rerio) larvae; test: Behavioural study (swimming activity) in zebrafish larvae under light cycles; assay type: in vivo
Procedure: Wild-type zebrafish embryos (Tupfel long-fin strain) were purchased from the animal facility of the Barcelona Biomedical Research Park (PRBB) and raised in darkness for 7 days at 28 °C in UV filtered tap water in Petri dishes (daily cleaned and refilled). Animal development was checked every 24 hours. Unhealthy or abnormal embryos and larvae were removed and euthanatized in tricaine methanosulfonate (400 mg/l). All experiments and procedures were conducted according to the European Directive 2010/63/EU.
Behavioral studies were conducted on wild-type zebrafish larvae at 7 days post-fertilization (dpf). Vehicle and compounds were added with a multichannel pipette to exclude differences related to a delay in the application of each solution. Movements were recorded and analyzed using the ZebraBox tracking system and the ZebraLab software (ViewPoint Life Science, France). On the morning of the test, 7-dpf larvae were moved into a new batch of fresh water and checked for motility capabilities and possible physical mutations. Larvae were then randomly divided into control and treatment groups. Each individual was placed in a separate well of a 96-well plate, each containing 200 µl of fresh UV filtered water and left undisturbed in the dark for 30 min to get acquainted with the new setting (habituation time). Afterwards, 100 µL of water were removed from each well and replaced with 100 µl of a double concentrated vehicle or treatment solution. At this point, the plate was inserted into the ZebraBox and the recording period started. Animals were exposed to controlled cycles of dark, 380 nm, 420 nm, 500 nm wavelengths or with a halogen lamp (warm white light), using the illumination protocols represented by coloured-shaded areas in their respective graphs (see figures). Illumination at 380, 420 and 500 nm was performed with a built-in array of 12 LEDs placed 12 cm away from the multiwell plate. The halogen lamp used was the Volpi Intralux 4000 (115 W). Light intensities, measured with a Newport 1916-C optical power meter coupled to a Newport 918D-SL-OD3R detector, were 0.21 mW·cm^-2 (380 nm), 2.43 mW·cm^-2 (420 nm) and 0.69 mW·cm^-2 (500 nm). All experiments were conducted between 12.00 and 15.00 pm (UTC+01:00).
Alterations of locomotor activity were determined by monitoring and measuring fast movements, swimming distances and duration of high-speed swimming. In particular, the dependent variables measured included: total distance travelled, distance travelled at ≤ 2 mm·s^-1, distance travelled at 2-6 mm·s^-1, distance travelled at ≥ 6 mm·s^-1, time spent moving, time spent freezing, and number of bursts. The arbitrary cut-off for motility (6 mm·s^-1) was chosen because no variance was found among the groups at lower speeds. Figures show distances travelled over 6 mm·s^-1 and total movements (addition of movements below cut-off high speed swimming) were not considered to limit the error of the video recording on minimal movements. Data were analysed by two-way ANOVA with Tukey's post-hoc test for statistical significance (GraphPad Prism 6).

[5] = after irradiation at 400 nm for 3 minutes, 374 nm
[6] = after irradiation at 500 nm for 3 minutes, 374 nm
[7] = benchtop dark condition, isosbestic wavelength 374 nm

## NC(=O)N1Cc2ccccc2/N=N\c2ccccc21 [compound of formula (II), (Z)-dibenzo[c,g][1,2,5]triazocine-11(12H)-carboxamide]
[1]; [5]
  ratio between the two isomers: cis (Z): 49%
  ratio between the two isomers: trans (E): 51%
[1]; [6]
  ratio between the two isomers: cis (Z): ≥ 99%
  ratio between the two isomers: trans (E): not detected
[1]; [7]
  ratio between the two isomers: cis (Z): ≥ 99%
  ratio between the two isomers: trans (E): not detected
[1]; in the dark, at benchtop conditions
  isomer present in the dark: fully converted into the Z inactive isomer
[1]; irradiation at ≥ 500 nm
  E to Z back-isomerization: full back-isomerization to the Z inactive form
[2]; 90 W EPV halogen lamp (600-700 nm), after one minute irradiation
  E to Z isomerization: full conversion
[2]; 590 nm LED, over 1 h irradiation
  E to Z isomerization: quantitative conversion to the Z isomer
[2]; dark conditions, PBS 0.01M, 25°C
  half-life for relaxation in the dark t1/2: 3.2 h
[2]; several cycles of illumination
  resistance to several cycles of illumination (photofatigue): without degradation or loss in photochromic properties; also recorded: without loss in absorption or degradation
[3]; spontaneously firing neurons, without blue light (Fig 2B: 500 nm), P > 0.05, mean ± SD, read-out: frequency of the action potentials generation, % from control
  activity at 30 µM: 72 ± 5%
[3]; under blue light (400 nm) illumination, P < 0.01, n=4, mean ± SD, read-out: frequency of the action potentials generation (firing), % from control
  activity at 30 µM: 28 ± 13%
[4]; 1 µM, after the third illumination with blue light (420 nm)
  distance swum: significant increase of the distance swum
[4]; 10 µM, average of all green (500 nm) periods
  swimming distances: slightly increased
[4]; 10 µM, under blue light (420 nm)
  swimming activity: increasing the activity of the larvae
[4]; 10 µM, under green illumination (500 nm)
  swimming activity: returning to control levels
[4]; 50 µM, first blue light (420 nm) illumination periods, effect reduced with consecutive blue illumination
  swimming activity: significantly hyperactive
[4]; 1-50 µM, 7 dpf zebrafish larvae
  signs of toxicity or distress in the larvae: No signs of toxicity or distress
[4]; all concentrations (1, 10, 50 µM), green light (500 nm), each period compared individually to control
  swimming distances: did not alter significantly the swimming distances
[4]; first 20 minutes of the experiment, full darkness, 7 dpf larvae
  effect on swimming behaviour in the dark: no effects
[4]; illumination with warm white light (halogen lamp), all treated groups
  hyperactivity of treated larvae: blocked the hyperactivity
